# Assay results: patent US20240174680A1, “CDK2 INHIBITORS AND METHODS OF USING THE SAME” (Cedilla Therapeutics, Inc., priority 2021, published 2024)
# Target: CDK2/Cyclin E1 (Homo sapiens, UniProt P24941)
# Test: CDK2/Cyclin E1 Caliper LabChip EZ Reader mobility shift assay
# Type: biochemical
# Design: purchased Eurofins 14-475
# Conditions: read-out: Caliper Assay (CDK2/CCNE1): IC50
# Method in brief: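 Substrate-to-product conversion of fluorescent peptide (1.5 μM final) read by capillary electrophoresis after 100 min reaction, EDTA-quenched. Enzyme (2.5 nM final) and ATP (100 μM final) were preincubated 30 min with inhibitor dilutions first. % activity vs concentration fitted four-parameter for IC50.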
row,Compound,IC50
1,Cc1ccc(CNC(=O)[C@@H]2CN(C(=O)c3cnc(Cc4ccccc4)s3)CC23CN(C(=O)[C@H]2CC2(C)C)C3)nn1 [I-405],> 10 µM
2,CC1(C)C[C@@H]1C(=O)N1CC2(CN(C(=O)c3cnn(Cc4ccccc4)c3)C[C@H]2C(=O)NCc2cccnn2)C1 [I-359],> 10 µM
3,CC1(C)C[C@@H]1C(=O)N1CC2(CN(C(=O)c3cnn(Cc4ccccc4)c3)C[C@H]2C(=O)N2CC[C@@H](OCC3CCCCC3)C2)C1 [I-235],0.1 to 1 µM
4,C[C@@H](OCC1CCCCC1)[C@@H](COC(F)(F)F)NC(=O)[C@@H]1CN(C(=O)c2cnn(Cc3ccccc3)c2)CC12CN(C(=O)[C@H]1CC1(C)C)C2 [I-309],0.01 to 0.1 µM
5,C[C@@H](OCc1ccccc1)[C@H](NC(=O)C1CN(C(=O)c2cnn(Cc3ccccc3)c2)CC12CN(C(=O)[C@H]1CC1(C)C)C2)C(=O)N1CCOCC1 (stereo partly drawn) [I-86],0.01 to 0.1 µM
6,C[C@@H](OCC1CCCCC1)[C@H](NC(=O)[C@@H]1CN(C(=O)c2cnn(Cc3ccccc3)c2)CC12CN(C(=O)[C@H]1CC1(C)C)C2)C(=O)N1CCOCC1 [I-152A],≤ 0.01 µM
7,C[C@@H](OCc1ccccc1)[C@H](NC(=O)C1CN(C(=O)c2cnn(Cc3ccccc3)c2)CC12CN(C(=O)[C@H]1CC1(C)C)C2)C(=O)N1CC2(CCC2)C1 (stereo partly drawn) [I-106],0.01 to 0.1 µM
8,CNC(=O)[C@@H](NC(=O)[C@H]1CN(C(=O)c2cnn(Cc3ccccc3)c2)CC12CN(C(=O)C1(F)CC1)C2)[C@@H](C)OCc1ccccc1 [I-71B],> 10 µM
9,COC(=O)[C@@H](CO)NC(=O)[C@@H]1CN(C(=O)c2cnn(Cc3ccccc3)c2)CC12CN(C(=O)[C@H]1CC1(C)C)C2 [I-187A],> 10 µM
10,CC1(C)C[C@@H]1C(=O)N1CC2(CN(C(=O)c3cnn(Cc4ccccc4)c3)C[C@@H]2C(=O)Nc2ccc(Cc3ccccc3)cc2)C1 [I-84B],1 to 10 µM
11,CNC(=O)C(NC(=O)[C@@H]1CN(C(=O)c2cncs2)CC12CN(C(=O)C(C)(C)C1CC1)C2)c1cccc(C2CCOCC2)n1 (stereo partly drawn) [I-338],> 10 µM
12,CNC(=O)[C@@H](NC(=O)[C@@H]1CN(C(=O)c2cncs2)CC12CN(C(=O)[C@H]1CC1(C)C)C2)[C@@H](C)OCC12CCC(CC1)CC2 [I-289],≤ 0.01 µM
13,CNC(=O)[C@@H](NC(=O)[C@@H]1CN(C(=O)c2cnn(Cc3ccccc3)c2)CC12CN(C(=O)[C@H]1CC1(C)C)C2)[C@@H](C)OCC(C)C [I-137A],0.1 to 1 µM
14,CNC(=O)[C@@H](NC(=O)[C@@H]1CN(C(=O)c2cnc(Cl)s2)CC12CN(C(=O)[C@H]1CC1(C)C)C2)[C@@H](C)OCC1CCCCC1 [I-189A],0.1 to 1 µM
15,CNC(=O)[C@@H](NC(=O)[C@H]1CN(C(=O)C2CCNC2)CC12CN(C(=O)[C@H]1CC1(C)C)C2)[C@@H](C)OCc1ccccc1 (stereo partly drawn) [I-70B],> 10 µM
16,C[C@@H](OCC12CCC(CC1)OC2)[C@H](NC(=O)[C@@H]1CN(C(=O)c2cncs2)CC12CN(C(=O)[C@H]1CC1(C)C)C2)C(=O)N1CCC[C@H](COC(F)(F)F)C1 [I-460],≤ 0.01 µM
17,C[C@@H](OCC1CCCCC1)[C@H](NC(=O)[C@@H]1CN(C(=O)c2cnn(Cc3ccccc3)c2)CC12CN(C(=O)[C@H]1CC1(C)C)C2)C(=O)NCC(C)(C)C(=O)O [I-472],≤ 0.01 µM
18,CNC(=O)[C@@H](NC(=O)[C@H]1CN(C(=O)c2ccncc2)CC12CN(C(=O)[C@H]1CC1(C)C)C2)[C@@H](C)OCc1ccccc1 [I-46B],> 10 µM
19,CNC(=O)[C@@H](NC(=O)C1CN(Cc2n[nH]c3ccccc23)CC12CN(C(=O)[C@H]1CC1(C)C)C2)[C@@H](C)OCc1ccccc1 (stereo partly drawn) [I-159],> 10 µM
20,C[C@@H](OCC12CCC(CC1)OC2)[C@H](NC(=O)[C@@H]1CN(C(=O)c2cnco2)CC12CN(C(=O)[C@H]1CC1(C)C)C2)C(C)(C)O [I-450],0.1 to 1 µM
21,CNC(=O)[C@@H](NC(=O)[C@@H]1CN(C(=O)c2cncs2)CC12CN(C(=O)[C@H]1CC1(C)C)C2)[C@@H](C)OCC1CCC2(CC1)CC2 [I-355],≤ 0.01 µM
22,"CNC(=O)[C@@H](NC(=O)[C@@H]1CN(C(=O)c2cncs2)CC12CN(CC1CCCC1)C2)[C@@H](C)OCC12CCC(CC1)OC2 [I-344, (S)—N-((2S,3R)-3-(2-oxabicyclo[2.2.2]octan-4-ylmethoxy)-1-(methylamino)-1-oxobutan-2-yl)-2-(cyclopentylmethyl)-6-(thiazole-5-carbonyl)-2,6-diazaspiro[3.4]octane-8-carboxamide]",> 10 µM
23,CNC(=O)[C@@H](NC(=O)[C@H]1CN(Cc2ccncc2)CC12CN(C(=O)[C@H]1CC1(C)C)C2)[C@@H](C)OCc1ccccc1 [I-55B],> 10 µM
24,COc1ccc(CNC(=O)[C@@H]2CN(C(=O)c3cnn(Cc4ccccc4)c3)CC23CN(C(=O)[C@H]2CC2(C)C)C3)nn1 [I-371],> 10 µM
25,CNC(=O)[C@@H](NC(=O)[C@@H]1CN(C(=O)c2sc(Cl)nc2Cl)CC12CN(C(=O)[C@H]1CC1(C)C)C2)[C@@H](C)OCC1CCCCC1 [I-232A],0.01 to 0.1 µM
26,"CNC(=O)[C@@H](NC(=O)[C@@H]1CN(C(=O)c2cnn(Cc3ccccc3)c2)CC12CN(CC(=O)O)C2)[C@@H](C)OCC1CCCCC1 [I-294, 2-((S)-6-(1-benzyl-1H-pyrazole-4-carbonyl)-8-(((2S,3R)-3-(cyclohexylmethoxy)-1-(methylamino)-1-oxobutan-2-yl)carbamoyl)-2,6-diazaspiro[3.4]octan-2-yl)acetic acid]",> 10 µM

row,Compound,IC50
1,CC1(C)C[C@@H]1C(=O)N1CC2(CN(C(=O)c3cnn(Cc4ccccc4)c3)C[C@H]2C(=O)N[C@H]2CCN(C3CC3)C2=O)C1 [I-243],> 10 µM
2,CNC(=O)[C@@H](NC(=O)[C@@H]1CN(C(=O)c2cncs2)CC12CN(C(=O)[C@H]1CC1(C)C)C2)[C@@H](C)OCC12CCC(CC1)OC2 [I-342],0.01 to 0.1 µM
3,CNC(=O)[C@@H](NC(=O)[C@H]1CN(C(=O)c2ccccn2)CC12CN(C(=O)[C@H]1CC1(C)C)C2)[C@@H](C)OCc1ccccc1 [I-45B],> 10 µM
4,CC(C)(O)C(NC(=O)[C@@H]1CN(C(=O)c2cncs2)CC12CN(C(=O)C(C)(C)C1CC1)C2)c1cccc(C2CCOCC2)n1 (stereo partly drawn) [I-339],1 to 10 µM
5,CC1(C)C[C@@H]1C(=O)N1CC2(CN(C(=O)c3cnn(Cc4ccccc4)c3)C[C@H]2C(=O)N[C@@H]2CCN(c3ccccc3)C2)C1 [I-207],1 to 10 µM
6,CC1(C)C[C@@H]1C(=O)N1CC2(CN(C(=O)c3cnn(Cc4ccccc4)c3)C[C@@H]2C(=O)N2CCC(Cc3ccccc3)CC2)C1 [I-58B],1 to 10 µM
7,COC(=O)C1(NC(=O)[C@@H]2CN(C(=O)c3cnn(Cc4ccccc4)c3)CC23CN(C(=O)[C@H]2CC2(C)C)C3)COC1 [I-142B],> 10 µM
8,CC1(C)C[C@@H]1C(=O)N1CC2(CN(C(=O)c3cncs3)C[C@@H]2C(=O)N[C@@H](COCC2CCCCC2)C(=O)N2CCCCC2)C1 [I-293],1 to 10 µM
9,C[C@@H](OCC1CCCCC1)[C@@H](COC1CCCNC1)NC(=O)[C@@H]1CN(C(=O)c2cncs2)CC12CN(C(=O)[C@H]1CC1(C)C)C2 (stereo partly drawn) [I-332],≤ 0.01 µM
10,CC1(C)C[C@@H]1C(=O)N1CC2(CN(C(=O)c3cnn(Cc4ccccc4)c3)C[C@H]2C(=O)NCC2CCCCO2)C1 (stereo partly drawn) [I-221],> 10 µM
11,C[C@@H](OCC1CCCCC1)[C@H](NC(=O)[C@@H]1CN(C(=O)c2cnn(C(F)(F)F)c2)CC12CN(C(=O)[C@H]1CC1(C)C)C2)C(=O)N1CCCCC1 [I-115],0.1 to 1 µM
12,"CNC(=O)[C@@H](NC(=O)[C@@H]1CN(C(=O)Nc2cnn(Cc3ccccc3)c2)CC12CN(C(=O)[C@H]1CC1(C)C)C2)[C@@H](C)OCc1ccccc1 [I-48A, (S)—N6-(1-benzyl-1H-pyrazol-4-yl)-N8-((2S,3R)-3-(benzyloxy)-1-(methylamino)-1-oxobutan-2-yl)-2-((S)-2,2-dimethylcyclopropane-1-carbonyl)-2,6-diazaspiro[3.4]octane-6,8-dicarboxamide]",> 10 µM
13,COC[C@H]1CCCN(C(=O)[C@@H](NC(=O)[C@@H]2CN(C(=O)c3cncs3)CC23CN(C(=O)[C@H]2CC2(C)C)C3)[C@@H](C)OCc2cccc(F)c2)C1 [I-322],≤ 0.01 µM
14,CNC(=O)[C@@H](NC(=O)[C@H]1CN(Cc2cn[nH]c2)CC12CN(C(=O)[C@H]1CC1(C)C)C2)[C@@H](C)OCc1ccccc1 [I-50B],> 10 µM
15,CNC(=O)[C@@H](NC(=O)[C@H]1CN(C(=O)c2scnc2C(C)(C)C)CC12CN(C(=O)[C@H]1CC1(C)C)C2)[C@@H](C)OCC1CCCCC1 [I-231B],> 10 µM
16,CNC(=O)[C@@H](NC(=O)[C@@H]1CN(C(=O)c2cncs2)CC12CN(C(=O)CC1CC1)C2)[C@@H](C)OCC1CCCCC1 [I-103A],0.1 to 1 µM
17,CNC(=O)[C@@H](NC(=O)C1CN(C(=O)c2cnn(Cc3ccccc3)c2)CC12CN(C(=O)[C@H]1CC1(C)C)C2)[C@@H](C)OCc1ccccn1 (stereo partly drawn) [I-257],1 to 10 µM
18,CNC(=O)[C@@H](NC(=O)[C@@H]1CN(C(=O)c2cncs2)CC12CN(C(=O)[C@H]1CC1(C)C)C2)[C@@H](C)OCC1CC2CCC1C2 (stereo partly drawn) [I-465],≤ 0.01 µM
19,C[C@@H](OCC1(C(F)(F)F)CC1)[C@H](NC(=O)[C@H]1CN(C(=O)c2cncs2)CC12CN(C(=O)[C@H]1CC1(C)C)C2)C(=O)N1CCC(F)(F)CC1 [I-291],0.1 to 1 µM
20,CNC(=O)[C@@H](NC(=O)[C@@H]1CN(C(=O)c2cnc(C(C)(C)C)s2)CC12CN(C(=O)[C@H]1CC1(C)C)C2)[C@@H](C)OCC1CCCCC1 [I-229A],> 10 µM
21,CNC(=O)[C@@H](NC(=O)[C@H]1CN(C(=O)c2cnn(CC3CC3)c2)CC12CN(C(=O)CC1CC1)C2)[C@@H](C)OCc1ccccc1 [I-53B],> 10 µM
22,C[C@@H](OCC1CCC2(CCC2)CC1)[C@H](NC(=O)[C@@H]1CN(C(=O)c2cnn(Cc3ccccc3)c2)CC12CN(C(=O)[C@H]1CC1(C)C)C2)C(=O)N1CCC(c2cnc[nH]2)CC1 [I-444],≤ 0.01 µM
23,COC[C@H]1CCCN(C(=O)[C@@H](C)NC(=O)[C@@H]2CN(C(=O)c3cncs3)CC23CN(C(=O)[C@H]2CC2(C)C)C3)C1 [I-324],1 to 10 µM
24,CNC(=O)[C@@H](NC(=O)[C@@H]1CN(C(=O)c2c[nH]c(=O)s2)CC12CN(C(=O)[C@H]1CC1(C)C)C2)[C@@H](C)OCC1CCCCC1 [I-184],0.1 to 1 µM
25,CNC(=O)[C@@H](NC(=O)[C@H]1CN(C(=O)c2cnn(Cc3ccccc3)c2)CC12CN(C(=O)C1(C(F)(F)F)CC1)C2)[C@@H](C)OCc1ccccc1 [I-108B],> 10 µM
